From US9382188B2, “Aromatic ring compound” (TAKEDA PHARMACEUTICAL COMPANY LIMITED, priority 2012, dated 2016) come the findings set out here.

Molecules are shown by their SMILES.

The target of the assay is T1, human GPR40 (Homo sapiens, UniProt O14842).
T1 construct: expressed in transfected cells
Kind of assay: Evaluation of human GPR40 agonist activity with increase in intracellular Ca2+ concentration as an index (FLIPR Tetra). The class given is cell-based. The note with it: test compound 1 μM; CHO(dhfr-) cells stably expressing human GPR40; 100% = activity of 1 μM WO2009/048527 Example 99.2, 0% = DMSO. Here is the method: Evaluation of human GPR40 agonist activity with increase in intracellular Ca^2+ concentration as an index
CHO(dhfr-) cells that stably expressed human GPR40 were suspended in MEMα (Nikken Bio Medical Laboratory) containing 10% dialysis serum (GEMINI BIO-PRODUCTS), 10 mM HEPES (Invitrogen), 100 U/mL penicillin, 100 μg/mL streptomycin (Invitrogen), and plated on a 384 well black/clear cell culture plate at 10,000 cells/well. After culture overnight in a CO2 incubator at 37° C., the culture supernatant was removed, and a loading buffer [dye attached to Calcium 5 Assay Kit (Molecular Devices) was dissolved in an assay buffer (20 mM HEPES, 0.2% fatty acid-free BSA (Sigma-Aldrich), 2.5 mM probenecid (DOJINDO)-containing HBSS (Invitrogen)) added with 0.025% Cremophor EL (DOJINDO)] was added at 37.5 μL/well. After incubation in a CO2 incubator at 37° C. for 1 hr, the cells were stood at room temperature for 15 min, an assay buffer containing the test compound at a final concentration of 1 μM was added at 12.5 μL/well in FLIPR Tetra (Molecular Devices), and the fluorescence amount was successively measured. Human GPR40 agonist activity calculated using an increase in the intracellular Ca^2+ concentration as an index, wherein the activity of 1 μM of the compound described in WO 2009/048527 (WO2009/048527 Example 99.2) was 100%, and the activity when DMSO was added instead of the test compound was 0%.

T1 sequence (O14842 whole entry): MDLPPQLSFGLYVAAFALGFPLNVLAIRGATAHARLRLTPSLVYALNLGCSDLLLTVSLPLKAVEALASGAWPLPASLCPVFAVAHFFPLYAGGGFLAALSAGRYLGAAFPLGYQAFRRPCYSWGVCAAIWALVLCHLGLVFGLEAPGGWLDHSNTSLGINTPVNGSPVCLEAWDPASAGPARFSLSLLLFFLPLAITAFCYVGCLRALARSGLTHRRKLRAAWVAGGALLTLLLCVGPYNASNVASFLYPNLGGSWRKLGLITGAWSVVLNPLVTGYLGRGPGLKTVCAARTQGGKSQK

For the molecule `COCCCOc1ccc(F)c(-c2ncc(OCc3cccc(C(CC(=O)O)C4CC4)c3)cc2CC(C)(C)C)c1` (stereo not shown) [Example 72, 3-cyclopropyl-3-(3-(((5-(2,2-dimethylpropyl)-6-(2-fluoro-5-(3-methoxypropoxy)phenyl)pyridin-3-yl)oxy)methyl)phenyl)propanoic acid], the activation at 1 µM stood at 1%.

`CC(C)(C)Cc1cc(OCc2cccc(C(CC(=O)O)C3CC3)c2)cnc1-c1cc(O)ccc1F` (stereo not shown) [Example 73, 3-cyclopropyl-3-(3-(((5-(2,2-dimethylpropyl)-6-(2-fluoro-5-hydroxyphenyl)pyridin-3-yl)oxy)methyl)phenyl)propanoic acid] registered an activation at 1 µM of 123%.

With `COc1ccc(F)c(-c2ccc(OCc3cccc(C(CC(=O)O)C4CC4)c3)cc2OC(C)(C)C)c1` (stereo not shown) [Example 74, 3-(3-(((2-tert-butoxy-2′-fluoro-5′-methoxybiphenyl-4-yl)oxy)methyl)phenyl)-3-cyclopropylpropanoic acid], the activation at 1 µM is 104%.

Molecule `COc1ccc(F)c(-c2ccc(OCc3cccc(C(CC(=O)O)C4CC4)c3)cc2-c2nnc(C(F)(F)F)s2)c1` (stereo not shown) [Example 75, 3-cyclopropyl-3-(3-(((2′-fluoro-5′-methoxy-2-(5-(trifluoromethyl)-1,3,4-thiadiazol-2-yl)-[1,1′-biphenyl]-4-yl)oxy)methyl)phenyl)propanoic acid] displayed an activation at 1 µM of 91%.

`CC#CC(CC(=O)O)c1cccc(COc2ccc(-c3cc(OC)ccc3F)c(CC(C)(C)C)c2)c1` (stereo not shown) [Example 76, 3-(3-(((2′-fluoro-5′-methoxy-2-neopentyl-[1,1′-biphenyl]-4-yl)oxy)methyl)phenyl)hex-4-ynoic acid] returned an activation at 1 µM of 95%.

In turn, `COc1ccc(F)c(-c2ccc(OCc3cccc(C(C#CC4CC4)CC(=O)O)c3)cc2CC(C)(C)C)c1` (stereo not shown) [Example 77, 5-cyclopropyl-3-(3-(((2′-fluoro-5′-methoxy-2-neopentyl-[1,1′-biphenyl]-4-yl)oxy)methyl)phenyl)pent-4-ynoic acid] returned an activation at 1 µM of 101%.

Turning to `COc1ccc(F)c(-c2ccc(OCc3cccc(C(CC(=O)O)C(C)C)c3)cc2CC(C)(C)C)c1` (stereo not shown) [Example 78, 3-(3-(((2′-fluoro-5′-methoxy-2-neopentyl-[1,1′-biphenyl]-4-yl)oxy)methyl)phenyl)-4-methylpentanoic acid], the activation at 1 µM came to 118%.

Molecule `C=CC(CC(=O)O)c1cccc(COc2ccc(-c3cc(OC)ccc3F)c(CC(C)(C)C)c2)c1` (stereo not shown) [Example 79, 3-(3-(((2′-fluoro-5′-methoxy-2-neopentyl-[1,1′-biphenyl]-4-yl)oxy)methyl)phenyl)pent-4-enoic acid] registered an activation at 1 µM of 134%.

Molecule `CCC(CC(=O)O)c1cccc(COc2ccc(-c3cc(OC)ccc3F)c(CC(C)(C)C)c2)c1` (stereo not shown) [Example 80, 3-(3-(((2′-fluoro-5′-methoxy-2-neopentyl-[1,1′-biphenyl]-4-yl)oxy)methyl)phenyl)pentanoic acid] yielded an activation at 1 µM of 94%.

`CCOC(=O)CC(CC(=O)O)c1cccc(COc2ccc(-c3cc(OC)ccc3F)c(CC(C)(C)C)c2)c1` (stereo not shown) [Example 81, 5-ethoxy-3-(3-(((2′-fluoro-5′-methoxy-2-neopentyl-[1,1′-biphenyl]-4-yl)oxy)methyl)phenyl)-5-oxopentanoic acid] registered an activation at 1 µM of 134%.

Molecule `COc1ccc(F)c(-c2ccc(OCc3cccc(C(CC(=O)O)CC(=O)O)c3)cc2CC(C)(C)C)c1` [Example 82, 3-(3-(((2′-fluoro-5′-methoxy-2-neopentyl-[1,1′-biphenyl]-4-yl)oxy)methyl)phenyl)pentanedioic acid] showed an activation at 1 µM of 5%.

Regarding `COc1ccc(F)c(-c2ccc(OCc3cccc(C(CC(N)=O)CC(=O)O)c3)cc2CC(C)(C)C)c1` (stereo not shown) [Example 83, 5-amino-3-(3-(((2′-fluoro-5′-methoxy-2-neopentyl-[1,1′-biphenyl]-4-yl)oxy)methyl)phenyl)-5-oxopentanoic acid], the activation at 1 µM came out at 34%.

For the molecule `COc1ccc(F)c(-c2ccc(OCc3cccc(C(CC(=O)O)C(C)(C)C#N)c3)cc2CC(C)(C)C)c1` (stereo not shown) [Example 84, 4-cyano-3-(3-(((2′-fluoro-5′-methoxy-2-neopentyl-[1,1′-biphenyl]-4-yl)oxy)methyl)phenyl)-4-methylpentanoic acid], the activation at 1 µM was 90%.

On to `COc1ccc(F)c(-c2ccc(OCc3cccc(C(CC(=O)O)C(F)(F)C(F)(F)F)c3)cc2CC(C)(C)C)c1` (stereo not shown) [Example 85, 4,4,5,5,5-pentafluoro-3-(3-(((2′-fluoro-5′-methoxy-2-neopentyl-[1,1′-biphenyl]-4-yl)oxy)methyl)phenyl)pentanoic acid], for which the activation at 1 µM was determined as 96%.

With `COc1ccc(F)c(-c2ccc(OCc3cccc(C(CC(=O)O)C(C)(F)F)c3)cc2CC(C)(C)C)c1` (stereo not shown) [Example 86, 4,4-difluoro-3-(3-(((2′-fluoro-5′-methoxy-2-neopentyl-[1,1′-biphenyl]-4-yl)oxy)methyl)phenyl)pentanoic acid], the activation at 1 µM amounted to 95%.

`COc1ccc(F)c(-c2ccc(OCc3cccc(C(CC(=O)O)C4CC4C#N)c3)cc2CC(C)(C)C)c1` (stereo not shown) [Example 87, 3-(2-cyanocyclopropyl)-3-(3-(((2′-fluoro-5′-methoxy-2-neopentyl-[1,1′-biphenyl]-4-yl)oxy)methyl)phenyl)propanoic acid]: the activation at 1 µM turned out to be 98%.

`COc1ccc(F)c(-c2ccc(OCc3cccc(C(CC(=O)O)C4CC4C#N)c3)cc2CC(C)(C)C)c1` (stereo not shown) [Example 88, 3-(2-cyanocyclopropyl)-3-(3-(((2′-fluoro-5′-methoxy-2-neopentyl-[1,1′-biphenyl]-4-yl)oxy)methyl)phenyl)propanoic acid]: the “Human GPR40 agonist activity (increase in intracellular Ca2+ concentration)” value amounted to 112%.

As for `COc1ccc(F)c(-c2ccc(OCc3cccc(C(CCCC#N)CC(=O)O)c3)cc2CC(C)(C)C)c1` (stereo not shown) [Example 89, 6-cyano-3-(3-(((2′-fluoro-5′-methoxy-2-neopentyl-[1,1′-biphenyl]-4-yl)oxy)methyl)phenyl)hexanoic acid], the activation at 1 µM came to 94%.

As to `COc1ccc(F)c(-c2ccc(OCc3cccc(C(CC(=O)O)C4CC4C#N)c3)cc2CC(C)(C)C)c1` (stereo not shown) [Example 90, 3-(2-cyanocyclopropyl)-3-(3-(((2′-fluoro-5′-methoxy-2-neopentyl-[1,1′-biphenyl]-4-yl)oxy)methyl)phenyl)propanoic acid], the “Human GPR40 agonist activity (increase in intracellular Ca2+ concentration)” value was determined as 107%.

As to `COc1ccc(F)c(-c2ccc(OCc3cccc(C(CC(=O)O)C4CC4C#N)c3)cc2CC(C)(C)C)c1` (stereo not shown) [Example 91, 3-(2-cyanocyclopropyl)-3-(3-(((2′-fluoro-5′-methoxy-2-neopentyl-[1,1′-biphenyl]-4-yl)oxy)methyl)phenyl)propanoic acid], the “Human GPR40 agonist activity (increase in intracellular Ca2+ concentration)” value was 97%.

In turn, `COc1ccc(F)c(-c2ccc(OCc3cccc(C(CC(=O)O)C4CC4)c3)cc2CCC(C)(C)OC)c1` (stereo not shown) [Example 92, 3-cyclopropyl-3-(3-(((2′-fluoro-5′-methoxy-2-(3-methoxy-3-methylbutyl)biphenyl-4-yl)oxy)methyl)phenyl)propanoic acid] displayed an activation at 1 µM of 113%.

As for `COc1ccc(F)c(-c2ccc(OCc3cccc(C(CC(=O)O)C4CC4)c3)cc2CCC(C)(C)C)c1` (stereo not shown) [Example 93, 3-cyclopropyl-3-(3-(((2-(3,3-dimethylbutyl)-2′-fluoro-5′-methoxybiphenyl-4-yl)oxy)methyl)phenyl)propanoic acid], the activation at 1 µM turned out to be 106%.
